# Patent US12251370B2, “Small molecule inhibitors of the BfrB:Bfd interaction” (BOARD OF SUPERVISORS OF LOUISIANA STATE UNIVERSITY AND …, priority 2018, dated 2025)
# “Also recorded” adds a separate entry of the source.
# Experiments:
# [1] = test system: P. aeruginosa clinical isolate MR3B; experiment: Effect of analog on ciprofloxacin potency, clinical isolate MR3B; assay type: cell-based, Pseudomonas aeruginosa
# Description: (§1) The combined treatment was carried out similarly, ensuring that the final concentration of DMSO was 2%.
# [2] = test system: iron mobilization from BfrB in P. aeruginosa; experiment: Imaging of iron stored in BfrB and analysis of total iron levels; assay type: cell-based, Pseudomonas aeruginosa; conditions: analog 125 μM, M63 + 4 μM Fe
# Description: The resultant cell suspensions (5 mL) were mixed with a small volume of a 10 mM working solution of analog 16 in DMSO to give a 125 μM solution and 2% DMSO, or simply 2% DMSO (control). The conical tubes were covered with a sterile air permeable membrane and the cultures incubated at 35° C. and 120 rpm for 6, 9, 12, 15, 18, 21 and 24 h. Prior to separating the cells by centrifugation (4,000 rpm, 15 min), a 100 μL aliquot was withdrawn from each conical tube and serially diluted for plating and enumerating viable cells. The separated pellet was washed with 5 mL of PBS and frozen at −20° C. for subsequent analysis. The corresponding cell free supernatants were used for iron analysis in the spent media, as described below. […]
# To determine the total iron levels of cells treated with analog 16 or DMSO only (control), 5 mL cultures were grown in M63 media supplemented with 4 μM iron, as described above, and analyzed at 12, 15, 21, 24, and 28 h. […] Cell pellets were washed twice with 10 mL of PBS and the total levels of cellular iron were measured using a published protocol.^18, 48 In brief, cell pellets were mixed with 500 μL of freshly prepared digestion reagent (1:1 v/v 1.2 N HCl and 4.5% w/v KMnO4 in water), thoroughly mixed by vortexing, and incubated at 65° C. for 4 h. […]
# [3] = test system: wild type P. aeruginosa cells; experiment: Growth response of wild type cells to analog (viable cell count); assay type: cell-based, Pseudomonas aeruginosa; conditions: M63 + 4 μM Fe; 15 h post-inoculation; viable cells vs untreated control
# Description: (§2) To this end, wild type and ΔbfrB cells were cultured in M63 media supplemented with 4 μM Fe, in the presence of different concentrations of analog. […] Since BfrB is not essential, it is likely that the cell can compensate for the absence of the iron storage protein. […] The sudden onset of toxicity observed in the second phase, which is not observed with the wild type cells, is probably related to off-target effects that expose a fitness vulnerability caused by the absence of BfrB. Consequently, it is possible to conclude that the dose-dependent growth defect elicited by 11 or 16 on wild type P. aeruginosa cells is largely a consequence of the interaction between the small molecule inhibitors and BfrB in the bacterial cell. This issue was investigated in additional detail (see below) by probing the phenotypic and biochemical response of wild type cells treated with the small molecule inhibitors.
# [4] = test system: ΔbfrB P. aeruginosa cells; experiment: Growth response of bfrB deletion mutant cells to analog; assay type: cell-based, Pseudomonas aeruginosa; conditions: M63 + 4 μM Fe; 15 h post-inoculation; viable cells vs untreated control
# Description: as §2
# P. aeruginosa = experiment: Growth curves and IC50 determination in P. aeruginosa; assay type: cell-based, Pseudomonas aeruginosa (PAO1); conditions: Pseudomonas aeruginosa; M63 media; growth % from OD600 at 13 h; three independent experiments
# Description: Pre-cultures (5 mL LB media) were grown for 12 h at 37° C. and 220 rpm in 50 mL conical tubes (VWR International, PA) covered with an air permeable membrane. The cells were then centrifuged at 4,000 rpm for 10 min, the resultant cell pellets washed twice in M63 media and then diluted in M63 media to OD600=0.01. Stock solutions (100 mM) of analog in DMSO were prepared weekly and stored at 4° C. Prior to initiating experiments in 96 well plates, the analog stock solution was serially diluted to make 10 mM or 1 mM working solutions in DMSO. A small volume of the appropriate working solution was transferred to a glass vial, diluted with DMSO to 30 μL, and then diluted to a final volume of 1.5 mL with pre-culture cell suspension with an OD600=0.01. The resultant cell suspension (200 μL) was transferred to a clear-bottom polystyrene 96 well plate (VWR), and incubated at 35° C. and 205 cpm for 13 h in an Epoch 2 microplate spectrophotometer (Biotek Instruments, Inc., Vermont). The growth curve in the presence of Ciprofloxacin was obtained in the same plate. […] MIC determinations were carried out using standard broth microdilution methods in 48 well plates and modified M63 media. Cells were incubated at 35° C.
# [5] = test system: P. aeruginosa clinical isolate MR60; experiment: Effect of analog on ciprofloxacin potency, clinical isolate MR60; assay type: cell-based, Pseudomonas aeruginosa
# Description: as §1
smiles,measurement,setting,value
"O=C1NC(=O)c2c(NCCCc3cccc(O)c3)cccc21 [Analog 16, 4-((3-(3-Hydroxyphenyl)propyl)amino)isoindoline-1,3-dione]","survival, fold lower relative to ciprofloxacin alone",[1]; analog 16 + ciprofloxacin,approximately 20 fold
same,survival,[1]; analog 16 + ciprofloxacin 0.2 μg/mL,0.5%
same,survival,"[1]; analog 16 only, 125 μM",ca. 50%
same,iron mobilization from BfrB (native PAGE stained with Ferene S),[2],significant inhibition of iron mobilization from BfrB; also recorded: much slower (inhibited) mobilization of iron from BfrB
same,"viable cells, fold fewer than untreated control",[2]; all time points,approximately 2.5 fold
same,growth response of wild type cells,[3],monophasic dose-dependent growth defect
same,growth response of ΔbfrB mutant cells,[4],biphasic growth response
same,IC50,P. aeruginosa,121 µM
same,"survival, fold lower relative to ciprofloxacin alone",[5]; analog 16 + ciprofloxacin,approximately 4 fold
same,survival,[5]; analog 16 + ciprofloxacin 1 μg/mL,ca. 10%
same,survival,"[5]; analog 16 only, 125 μM",ca. 40%
